# In patent US20150239890A1, “CRYSTAL OF N-[2-(AMINO)-2-METHYLPROPYL]-2-METHYLPYRAZOLO[1,5-A]PYRIMIDINE-6-CARBOXAMIDE” (SANWA KAGAKU KENKYUSHO CO., LTD., priority 2012, published 2015):
# Like-named read-outs stand apart in the source and are kept apart here.
# Assays:
# Type in all cases: physicochemical
# [1] = Hygroscopicity test in condition of 66% RH (20° C.)
# Method: Each test sample of an amorphous compound 1 prepared in a modification method, an amorphous compound 2 obtained by forming a free base of the amorphous compound 1 into hydrochloride in the same method as in Example 1 of Patent Literature 1, a crystal of the compound 1, which was prepared by the method described in Example 1 of the present specification, was charged into a desiccator at a humidity of 66% RH that was prepared by an aqueous saturated sodium nitrite solution by each amount of 100 mg and left stood at 20° C. Change in weights of each test sample was measured with time and a weight increase ratio was calculated.
# [2] = Stability test in (sealed) condition at 60° C., purity by HPLC; conditions: for Purity (60° C., sealed) After 4 weeks: sealed brown glass bottle; for Purity (60° C., sealed) Initial stage value: before storage
# Method: Each test sample of an amorphous compound 1 prepared by a modification method, an amorphous compound 2 obtained by forming a free base of the amorphous compound 1 into hydrochloride in the same method as in Example 1 of Patent Literature 1, a crystal of the compound 1, which was prepared by the method described in Example 1 of the present specification, was charged into a brown glass bottle by each amount of 10 mg and preserved at 60° C., and the purities were compared after 4 weeks. […] Not that the purity measurement was carried out in the following conditions.
# Column: Develosil CN-5 (Nomura Chemical), 250 mm×4.6 mmφ
# Mobile phase: 20 mM NaH2PO4 buffer (pH 6.9)/MeCN=80/20
# Wavelength: UV 247 nm and 220 nm
# Concentration of test sample: 100 μg/ml (H2O)
# [3] = Solubility of the crystal in water; conditions: for solubility: 20 °C, thermodynamic from solid
# Method: 1. The crystal has peaks around at 9.8°, 17.4°, 18.6°, 25.3°, and 25.8° as diffraction angles represented by 2θ in the powder X-ray diffraction pattern. 2. The crystal has absorption recognized around at wave numbers of 3340 cm^−1, 1664 cm^−1, and 1654 cm^−1 in the infrared absorption spectrum. 3. The crystal has a heat adsorption peak around at 120° C. in the differential scanning calorimetry (DSC). 4. The crystal has a degree of solubility to water of 1 g/ml or higher and the solubility is classified into “very soluble” according to the Japanese Pharmacopoeia.
# Solubility (20° C.): >1 g/ml (very soluble)
# [4] = 66% RH, 20° C., after 7 days, listed as crystal of the compound 1
# [5] = 66% RH, 20° C., after 7 days, listed as amorphous compound 1
"Weight increase ratio (66% RH, 20° C.) After 7 days ([1]; 66% RH, 20° C., after 7 days)","purity After 7 days (66% RH, 20° C.) ([1]; 66% RH, 20° C., after 7 days)","Weight increase ratio (66% RH, 20° C.) Initial stage value [1]","purity, Initial stage value (66% RH, 20° C. test) [1]","Purity (60° C., sealed) After 4 weeks ([2]; 60° C., after 4 weeks)","impurity / area value of an impurity peak, initial stage [2]","Purity (60° C., sealed) Initial stage value [2]",SMILES,other results
1.7%,90.5%,0,97.9%,96.1%,0.6%,98.8%,Cc1cc2ncc(C(=O)NCC(C)(C)NCC(=O)N3CCC[C@H]3C#N)cn2n1 [Amorphous compound 2],"Purity (60° C., sealed) After 4 weeks ([2]; 60° C., after 4 weeks, listed as amorphous compound 2): 96.1%; area value of an impurity peak after 4 weeks ([2]; 60° C., sealed, after 4 weeks): 3.1%; Purity (60° C., sealed) Initial stage value ([2]; listed as amorphous compound 2): 98.8%"
0.01%,100.0%,0,100.0%,100.0%,not observed to contain an impurity,100.0%,"Cc1cc2ncc(C(=O)NCC(C)(C)NCC(=O)N3CCC[C@H]3C#N)cn2n1 [Crystal of compound 1, N-[2-({2-[(2S)-2-cyanopyrrolidine-1-yl]-2-oxoethyl}amino)-2-methylpropyl]-2-methylpyrazolo[1,5-a]pyrimidine-6-carboxamide]","hygroscopicity (in words) ([1]; 66% RH, 20° C., after 7 days): hygroscopicity was not observed; Weight increase ratio (66% RH, 20° C.) After 7 days [1, 4]: 0.01%; purity After 7 days (66% RH, 20° C.) [1, 4]: change in the purity was also not recognized; Purity (60° C., sealed) After 4 weeks ([2]; 60° C., after 4 weeks, listed as crystal of the compound 1): not changed; Solubility (20° C.) class ([3]; 20° C.): very soluble; solubility class according to the Japanese Pharmacopoeia ([3]; water): very soluble; solubility ([3]; water, water, 20° C., read-out: Solubility (20° C.)): > 1000 mg/mL; solubility ([3]; water, water, water, read-out: degree of solubility to water): ≥ 1000 mg/mL"
1.7%,99.8%,0,100.0%,99.4%,not observed to contain an impurity,100.0%,"Cc1cc2ncc(C(=O)NCC(C)(C)NCC(=O)N3CCC[C@H]3C#N)cn2n1 [Amorphous compound 1, N-[2-({2-[(2S)-2-cyanopyrrolidine-1-yl]-2-oxoethyl}amino)-2-methylpropyl]-2-methylpyrazolo[1,5-a]pyrimidine-6-carboxamide]","Weight increase ratio (66% RH, 20° C.) After 7 days [1, 5]: 1.7%; purity After 7 days (66% RH, 20° C.) [1, 5]: 99.8%; Purity (60° C., sealed) After 4 weeks ([2]; 60° C., after 4 weeks, listed as amorphous compound 1): 99.4%"
